The text below walks through data of PubChem BioAssay (NCI).

Each structure is given as a SMILES string. “And” between values parts separate entries of the source, which are not always exact repeats. Equal entries are not always repeated.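 Values below derive from 48-hour exposures of cells grown in 96-well plates, with endpoints linearly interpolated between the two concentrations bracketing the appropriate inhibition level. At the GI50, growth is halved. At the TGI there is no net growth.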 Bounds are passed on as bounds.

Assay in all cases: NCI tumour cell line growth inhibition, 48 h
The test system of assay [1] is HCT-116 colon.
Assay [2] has as its system UO-31 renal.
For assay [3], the system named is PC-3 prostate.
For assay [4], the system named is SK-MEL-5 melanoma.
Assay [5] has as its system UACC-62 melanoma.
Assay [6] concerns A498 renal.
For assay [7], the system named is MALME-3M melanoma.
Assay [8] concerns OVCAR-3 ovarian.
The test system of assay [9] is HS 578T breast.
The subject of assay [10] is LOX IMVI melanoma.

As to `CCCN1CCC(=O)N(CCC(F)(F)C(F)(F)C(F)(F)C(F)(F)C(F)(F)C(F)(F)F)C1=S`, the TGI in [1], in [2], in assay [3], in assay [4], in assay [5] and in assay [6] was > 100 µM each time. Also, the TGI in assay [7], in assay [8] and in assay [9] was > 100 µM each time.
Consider `CN1C(=O)c2cccc3cc([N+](=O)[O-])cc(c23)C1=O`, for which the TGI in [1], in assay [3], in [10], in assay [4], in [5] and in assay [7] was > 10 µM in each case. The TGI in assay [8] and in assay [9] was > 10 µM throughout.
Turning to `COc1cccc2c1C(=O)c1c(O)c3c(c(O)c1C2=O)C[C@@](O)(C(C)=O)C[C@@H]3OC1OC(C)C(O)C(N)C1Br` (some centres not stated), the TGI in assay [1] is 0.147 µM and 0.188 µM; in assay [2], 0.329 µM and 0.59 µM; in [3], 1.03 µM; in assay [10], 0.153 µM and 0.164 µM; in assay [4], 0.223 µM and 0.139 µM; in assay [5] it was 0.892 µM and 0.424 µM. Also, the TGI was 0.532 µM and 0.228 µM in [6]; 0.297 µM and 0.225 µM in assay [7]; 0.364 µM and 0.584 µM in assay [8]. In addition, the GI50 in assay [2] is 0.134 µM; in assay [4], 0.0166 µM; in assay [5], 0.0459 µM; in assay [6], 0.0657 µM; in [7] it was 0.0215 µM; in [8] it was 0.178 µM.
Take `Cc1cc(C(=O)Nc2ncc(Cc3cccc(C(F)(F)F)c3)s2)c2ccccc2n1`: the GI50 in assay [1] is 1.29 µM; in [2], 1.5 µM; in assay [3] it was 2.31 µM; in assay [4] it was 1.03 µM; in assay [7], 3.51 µM; in [8], 2.63 µM. Further, the GI50 in assay [9] is 2.41 µM. The TGI in [1], in [2], in [3], in [4], in [7] and in assay [8] was > 100 µM in each case. Also, the TGI in assay [9] was > 100 µM.
As to `NCC1Nc2ccccc2[C@@H](O)C1O` (some centres not stated), the TGI in [1], in assay [2], in assay [3], in assay [10], in assay [4] and in [5] was > 100 µM each time. In addition, the TGI in assay [7], in [8] and in [9] was > 100 µM each time.
In the case of `COc1cc(/C=C/c2cc(/C=C/c3ccc(O)c(OC)c3)n(C(=O)Nc3ccc(F)c(Cl)c3)n2)ccc1O`, the GI50 is 0.248 µM in assay [2]; 0.365 µM in [3]; 0.0792 µM in [10]; 0.243 µM in [4]; 0.452 µM in [5]; 0.783 µM in assay [6]. Further, the GI50 is 1.05 µM in assay [7], 0.263 µM in assay [8] and 0.346 µM in [9]. For the same compound, the TGI in [2] amounted to 1.82 µM; in [3] it was 6.58 µM; in assay [10] it was 1.85 µM; in assay [4] it was 1.37 µM; in assay [5] it was 1.99 µM; in [6] it was 2.1 µM. Moreover, the TGI was 2.48 µM in assay [7], 0.837 µM in assay [8] and 2.74 µM in assay [9].
For the compound `N=C1C(c2nc3ccccc3s2)=C(O)CN1c1cc(C(F)(F)F)ccc1Cl`, the GI50 in [1] is 8.59 µM; in assay [2], 2.63 µM; in [3], 5.82 µM; in assay [10], 22.7 µM; in assay [4], 6.61 µM; in [5] it was 5.06 µM. Further, the results for the GI50 in assay [6], in assay [8] and in assay [9] were 24.6 µM, 4.47 µM and 35.7 µM, respectively. Besides, the TGI was 62.2 µM in assay [1]; 6.18 µM in assay [2]; 49.9 µM in assay [3]; > 100 µM in assay [10]; 46.7 µM in assay [4]; 42.7 µM in assay [5]. In addition, the TGI is 97.9 µM in assay [6], 40.4 µM in [8] and > 100 µM in assay [9].
For the compound `Clc1nc(Cl)c(Cl)c(-c2ccccc2)n1`, the TGI in assay [2] came out at 34.7 µM; in assay [3], 39.3 µM; in assay [10], 5.59 µM; in [4], 11.8 µM; in assay [7], 53.7 µM; in [8], 5.38 µM. Also, in [9], the TGI is > 100 µM.
On to `Cc1cn(C2CC(N(O)Cc3ccccc3)C(CO[Si](C)(C)C(C)(C)C)O2)c(=O)[nH]c1=O` (configuration not stated), for which the TGI in assay [1] is 34.8 µM and 29.7 µM; in assay [2], > 100 µM and 24.9 µM; in assay [3], 61.7 µM and 28 µM; in [4], 33.1 µM and 30.2 µM; in assay [5], 26 µM and 30 µM; in [6] it was 48.7 µM and 26.8 µM. Also, the TGI is 31.8 µM in assay [7]; 32 µM in assay [8]; 41.6 µM and 34.5 µM in assay [9]. Also, the GI50 in [2] is 32.6 µM and 12.3 µM.
With `COc1ccccc1CNCCCN1C(=O)c2ccc3c4c(ccc(c24)C1=O)C(=O)N(CCCOCCCCOCCCN)C3=O`, the GI50 in assay [2] is 1.55 µM; in assay [3], 1.45 µM; in [10], 1.26 µM; in [4], 0.288 µM; in [5] it was 0.645 µM; in [6] it was 1.3 µM. Also, the GI50 in [8] is 0.297 µM; in assay [9] it was 2.02 µM. Further, the TGI worked out at 3.15 µM in [2]; 5.17 µM in assay [3]; 3.01 µM in [10]; 1.18 µM in [4]; 1.96 µM in [5]; 2.7 µM in [6]. Moreover, the TGI in [8] came out at 0.754 µM; in assay [9], 5.7 µM.
For `Cn1c2c(c3ccccc31)CC1c3c(c4ccccc4n3C)CC21` (configuration not stated), the TGI in [2], in assay [3], in [10], in assay [4], in assay [5] and in assay [7] was > 100 µM in each case. The TGI in assay [8] and in assay [9] was > 100 µM throughout.
